The record followed here is ChEMBL document CHEMBL1130787, “Synthesis and in vitro antimalarial activity of sulfone endoperoxides” (Bioorg Med Chem Lett, 1998).

pIC50: −log10 of the molar value.

For this assay, the system named is Plasmodium falciparum. Description: In vitro antimalarial activity against chloroquine-sensitive Plasmodium falciparum NF 54. Format: functional, organism-based.

Broadly, the pIC50 is the negative decadic logarithm of the IC50, by convention in mol/L. A low value points to a high IC50. With `CCOC(=O)C(=O)OC1(C)CCC2CC1OO[C@@]2(C)CS(=O)(=O)c1ccccc1` (some centres undefined), the pIC50 is 6.77.

For the molecule `C[C@@H]1CC[C@H]2[C@@H](C)C(=O)O[C@@H]3O[C@@]4(C)CC[C@@H]1[C@]32OO4` [ARTEMISININ], the pIC50 is 8.03.

Turning to `CC(=O)OC1(C)CCC2CC1OO[C@]2(C)CS(=O)(=O)c1ccccc1` (some centres undefined), the pIC50 was 7.77.

`CCOC(=O)C(=O)OC1(C)CCC2CC1OO[C@]2(C)CS(=O)(=O)c1ccccc1` (some centres undefined) showed a pIC50 of 6.85.

As for `CC1(OC(=O)C(=O)N(Cc2ccccc2)Cc2ccccc2)CCC2CC1OO[C@@]2(C)CS(=O)(=O)c1ccccc1` (some centres undefined), the pIC50 was 7.68.

As to `CC(=O)CC(=O)OC1(C)CCC2CC1OO[C@@]2(C)CS(=O)(=O)c1ccccc1` (some centres undefined), the pIC50 was 7.34.

Regarding `CC1(O)CCC2CC1OO[C@]2(C)CS(=O)(=O)c1ccccc1` (some centres undefined), the pIC50 was 7.05.

`CC1(CSc2ccccc2)OOC2CC1CC[C@@]2(C)O.CC1(CSc2ccccc2)OOC2CC1CC[C@]2(C)O` (some centres undefined) showed a pIC50 of less than 5.60.

`CC(=O)CC(=O)OC1(C)CCC2CC1OO[C@]2(C)CS(=O)(=O)c1ccccc1` (some centres undefined) showed a pIC50 of 7.14.

In the case of `CC(=O)OC1(C)CCC2CC1OO[C@@]2(C)CS(=O)(=O)c1ccccc1` (some centres undefined), the pIC50 was 7.77.

In turn, `CC1(O)CCC2CC1OO[C@@]2(C)CS(=O)(=O)c1ccccc1` (some centres undefined) gave a pIC50 of 7.26.

`COc1ccc(COC2(C)CCC3CC2OO[C@@]3(C)CS(=O)(=O)c2ccccc2)cc1` (some centres undefined) gave a pIC50 of 7.85.

`C[C@@H]1C(=O)C[C@H]2CC1OO[C@@]2(C)/C=C\c1ccc(C(F)(F)F)cc1C(F)(F)F` (single isomer, unassigned) [ARTEFLENE] had a pIC50 of 7.15.

Consider `CC1(OC(=O)C(=O)N(Cc2ccccc2)Cc2ccccc2)CCC2CC1OO[C@]2(C)CS(=O)(=O)c1ccccc1` (some centres undefined), for which the pIC50 was 7.09.
